Measurements as given in PubChem BioAssay AID236 (DTP/NCI, 2004).
Several values for one entry are separate records, joined by “and”; a condition that tells them apart may be missing. Identical values can stand only once. Inconclusive results and toxic doses are left out. How the source made its calls: active means survival T/C of 150% or more; inactive means T/C below 125% in these data.

Test system: AK4 lymphoid leukemia ip, C3AKF1 mice, survival
Test: NCI In Vivo Anticancer Drug Screen. Data for tumor model AK4 Lymphoid Leukemia (intraperitoneal) in C3AKF1 (CHKRF1) mice
Conditions: endpoint: median survival time, higher = longer survival
Protocol: The antitumor activity of compounds was measured in mice bearing transplantable tumors. Survival or tumor size were measured and the results are expressed as the measurement made in the treated group (T) divided by the measurement made in the vehicle treated control group (C). The tumor model used in this assay is AK4 Lymphoid Leukemia (intraperitoneal) in C3AKF1 (CHKRF1) mice

[1] = dose: 125.0 mg/kg/injection, schedule: Q01DX010 (ip), vehicle: saline
[2] = dose: 250.0 mg/kg/injection, schedule: Q01DX010 (ip), vehicle: saline
[3] = dose: 62.5 mg/kg/injection, schedule: Q01DX010 (ip), vehicle: saline
[4] = dose: 12.5 mg/kg/injection, schedule: Q01DX010 (ip), vehicle: saline
[5] = dose: 25.0 mg/kg/injection, schedule: Q01DX010 (ip), vehicle: saline
[6] = dose: 100.0 mg/kg/injection, schedule: Q01DX010 (ip), vehicle: saline

Measured: T/C

CC[C@@H](c1ccc(O)cc1)[C@@H](CC)c1ccc(O)cc1
inactive: dose: 25.0 mg/kg/injection, schedule: Q01DX010 (ip), vehicle: water 100 % of control | dose: 50.0 mg/kg/injection, schedule: Q01DX010 (ip), vehicle: water 87 % of control | dose: 100.0 mg/kg/injection, schedule: Q01DX010 (ip), vehicle: water 87 % of control | dose: 200.0 mg/kg/injection, schedule: Q01DX010 (ip), vehicle: water 87 % of control

Nc1nc2n[nH]nc2c(=O)[nH]1
inactive: dose: 25.0 mg/kg/injection, schedule: Q01DX010 (ip), vehicle: alkali diluted with saline 100 % of control and 115 % of control | dose: 50.0 mg/kg/injection, schedule: Q01DX010 (ip), vehicle: alkali diluted with saline 105 % of control and 120 % of control | dose: 100.0 mg/kg/injection, schedule: Q01DX010 (ip), vehicle: alkali diluted with saline 100 % of control and 110 % of control | dose: 200.0 mg/kg/injection, schedule: Q01DX010 (ip), vehicle: alkali diluted with saline 100 % of control and 110 % of control

S=P(N1CC1)(N1CC1)N1CC1
inactive: dose: 0.75 mg/kg/injection, schedule: Q01DX010 (ip), vehicle: saline 104 % of control and 105 % of control | dose: 1.5 mg/kg/injection, schedule: Q01DX010 (ip), vehicle: saline 100 % of control and 105 % of control | dose: 3.0 mg/kg/injection, schedule: Q01DX010 (ip), vehicle: saline 95 % of control and 104 % of control | dose: 6.0 mg/kg/injection, schedule: Q01DX010 (ip), vehicle: saline 105 % of control and 109 % of control

CCOC(N)=O
inactive: [1] 100 % of control and 121 % of control | [2] 100 % of control and 106 % of control | dose: 1000.0 mg/kg/injection, schedule: Q01DX010 (ip), vehicle: saline 87 % of control

Nc1ncnc2c1ccn2C1OC(CO)C(O)C1O (stereo unspecified)
inactive: dose: 156.0 micrograms/kg/injection, schedule: Q01DX010 (ip), vehicle: saline 106 % of control | dose: 313.0 micrograms/kg/injection, schedule: Q01DX010 (ip), vehicle: saline 112 % of control | dose: 625.0 micrograms/kg/injection, schedule: Q01DX010 (ip), vehicle: saline 112 % of control | dose: 1250.0 micrograms/kg/injection, schedule: Q01DX010 (ip), vehicle: saline 112 % of control

CCn1cnc2c(=S)nc[nH]c21
inactive: dose: 15.6 mg/kg/injection, schedule: Q01DX010 (ip), vehicle: saline 100 % of control | dose: 31.3 mg/kg/injection, schedule: Q01DX010 (ip), vehicle: saline 88 % of control | [3] 88 % of control | [1] 105 % of control

C[C@@H]1C[C@@H]([C@H](O)CC2CC(=O)NC(=O)C2)C(=O)[C@@H](C)C1
inactive: dose: 5.0 mg/kg/injection, schedule: Q01DX010 (ip), vehicle: saline 100 % of control and 107 % of control | dose: 10.0 mg/kg/injection, schedule: Q01DX010 (ip), vehicle: saline 87 % of control and 121 % of control | dose: 20.0 mg/kg/injection, schedule: Q01DX010 (ip), vehicle: saline 93 % of control and 114 % of control

COS(C)(=O)=O
inactive: [4] 100 % of control and 105 % of control | [5] 100 % of control | dose: 50.0 mg/kg/injection, schedule: Q01DX010 (ip), vehicle: saline 88 % of control and 116 % of control | [6] 100 % of control and 111 % of control

Nc1c(Br)cc2c(c1Br)Cc1cc([N+](=O)[O-])ccc1-2
inactive: [3] 100 % of control and 105 % of control | [1] 94 % of control and 100 % of control | [2] 94 % of control and 105 % of control | dose: 500.0 mg/kg/injection, schedule: Q01DX010 (ip), vehicle: saline 94 % of control

CS(=O)(=O)OCCC(=O)N1CCN(C(=O)CCOS(C)(=O)=O)CC1
inactive: [4] 94 % of control and 116 % of control | [5] 116 % of control | [6] 122 % of control

C[C@]12C=CC(=O)C=C1CC[C@@H]1[C@@H]2C(=O)C[C@@]2(C)[C@H]1CC[C@]2(O)C(=O)CO
inactive: dose: 6.25 mg/kg/injection, schedule: Q01DX010 (sc), vehicle: steriod suspending solution 100 % of control | dose: 12.5 mg/kg/injection, schedule: Q01DX010 (sc), vehicle: steriod suspending solution 100 % of control and 87 % of control | dose: 12.5 mg/kg/injection, schedule: Q01DX Z (sc), vehicle: steriod suspending solution 93 % of control | dose: 25.0 mg/kg/injection, schedule: Q01DX010 (sc), vehicle: steriod suspending solution 100 % of control and 87 % of control | dose: 25.0 mg/kg/injection, schedule: Q01DX Z (sc), vehicle: steriod suspending solution 93 % of control | dose: 50.0 mg/kg/injection, schedule: Q01DX010 (sc), vehicle: steriod suspending solution 90 % of control and 100 % of control (2×) | dose: 50.0 mg/kg/injection, schedule: Q01DX Z (sc), vehicle: steriod suspending solution 96 % of control and 100 % of control | dose: 100.0 mg/kg/injection, schedule: Q01DX010 (sc), vehicle: steriod suspending solution 90 % of control and 118 % of control | dose: 100.0 mg/kg/injection, schedule: Q01DX Z (sc), vehicle: steriod suspending solution 96 % of control | dose: 200.0 mg/kg/injection, schedule: Q01DX010 (sc), vehicle: steriod suspending solution 105 % of control and 118 % of control | dose: 200.0 mg/kg/injection, schedule: Q01DX Z (sc), vehicle: steriod suspending solution 96 % of control and 120 % of control

Cc1cc2nc3c(=O)[nH]c(=O)nc-3n(CC(O)C(O)C(O)C(O)CO)c2cc1C (stereo unspecified)
inactive: dose: 3.13 mg/kg/injection, schedule: Q01DX010 (ip), vehicle: saline 105 % of control | dose: 6.25 mg/kg/injection, schedule: Q01DX010 (ip), vehicle: saline 111 % of control | [4] 105 % of control | [5] 100 % of control and 105 % of control | dose: 200.0 mg/kg/injection, schedule: Q01DX010 (ip), vehicle: saline 88 % of control

CS(=O)(=O)OCCN(CCOS(C)(=O)=O)c1ccc(N=O)cc1
inactive: dose: 0.5 mg/kg/injection, schedule: Q01DX010 (ip), vehicle: saline 111 % of control | dose: 1.0 mg/kg/injection, schedule: Q01DX010 (ip), vehicle: saline 111 % of control | dose: 2.0 mg/kg/injection, schedule: Q01DX010 (ip), vehicle: saline 94 % of control | dose: 4.0 mg/kg/injection, schedule: Q01DX010 (ip), vehicle: saline 88 % of control | dose: 62.5 micrograms/kg/injection, schedule: Q01DX010 (ip), vehicle: saline 110 % of control | dose: 125.0 micrograms/kg/injection, schedule: Q01DX010 (ip), vehicle: saline 115 % of control | dose: 250.0 micrograms/kg/injection, schedule: Q01DX010 (ip), vehicle: saline 115 % of control | dose: 500.0 micrograms/kg/injection, schedule: Q01DX010 (ip), vehicle: saline 115 % of control

S=c1nc[nH]c2nc[nH]c12
inactive: dose: 5.0 mg/kg/injection, schedule: Q01DX010 (ip), vehicle: alkali diluted with saline 100 % of control | dose: 5.0 mg/kg/injection, schedule: Q01DX Z (ip), vehicle: saline 93 % of control | dose: 10.0 mg/kg/injection, schedule: Q01DX010 (ip), vehicle: alkali diluted with saline 95 % of control and 118 % of control | dose: 10.0 mg/kg/injection, schedule: Q01DX Z (ip), vehicle: saline 93 % of control and 96 % of control | dose: 20.0 mg/kg/injection, schedule: Q01DX010 (ip), vehicle: alkali diluted with saline 100 % of control and 112 % of control | dose: 20.0 mg/kg/injection, schedule: Q01DX Z (ip), vehicle: saline 90 % of control and 106 % of control | dose: 40.0 mg/kg/injection, schedule: Q01DX010 (ip), vehicle: alkali diluted with saline 93 % of control and 110 % of control | dose: 40.0 mg/kg/injection, schedule: Q01DX Z (ip), vehicle: saline 93 % of control and 96 % of control | dose: 80.0 mg/kg/injection, schedule: Q01DX010 (ip), vehicle: alkali diluted with saline 100 % of control | dose: 80.0 mg/kg/injection, schedule: Q01DX Z (ip), vehicle: saline 93 % of control and 96 % of control

N#CCSc1ncnc2nc[nH]c12
inactive: dose: 15.0 mg/kg/injection, schedule: Q01DX010 (ip), vehicle: saline 87 % of control | dose: 30.0 mg/kg/injection, schedule: Q01DX010 (ip), vehicle: saline 93 % of control | dose: 60.0 mg/kg/injection, schedule: Q01DX010 (ip), vehicle: saline 93 % of control | dose: 120.0 mg/kg/injection, schedule: Q01DX010 (ip), vehicle: saline 87 % of control

O=c1c(O)cccc2cc(O)c(O)c(O)c12
inactive: [5] 94 % of control
